{"source": "patent US9119884B2", "about": "“LLP2A-bisphosphonate conjugates for osteoporosis treatment” (The Regents of the University of California, priority 2010, dated 2015)", "key": {"NOD/SCID/MPSVII mice": {"tested_on": "NOD/SCID/MPSVII mice", "test": "huMSC transplantation with LLP2A-Ale in immunodeficient mice", "format": "in vivo, mouse", "excerpt": "Human MSCs (huMSCs) were obtained and injected together with LLP2A-Ale to immunodeficient mice, NOD/SCID/mucopolysaccharidosis type VII (MPSVII). This mouse strain lacked the β-glucuronidase (GUSB) enzyme. The donor cells could be easily detected using biochemical detection of β-glucuronidase (See Meyerrose, T. E., et al., Stem Cells, 2007. 25(1): p. 220-7; Meyerrose, T. E., et al., Stem Cells, 2008. 26(7): p. 1713-22). At three-month of age, the mice received a single intravenous (i.v.) injection of either vehicle (100 μl PBS/mouse), huMSCs (5×10^5/100 μl/PBS/mouse), huMSCs+LLP2A (5 nM/mouse) or huMSCs+LLP2A-Ale (500 ng/mouse; total compound weight 3.5 μg, with alendronate concentration of 500 ng/mouse). The alendronate dose we used for the study was approximately one-fifth of the therapeutic dose for the treatment of osteoporosis (See Colon-Emeric, C. S., JAMA, 2006, 296(24): p. 2968-9; Ma, Y. L., et al., Endocrinology, 2003. 144(5): p. 2008-15). […] HuMSC, as shown by GUSB+red stain, were only present at the trabecular bone surface in the LLP2A-Ale-treated group (lower panel). There was no demonstrable GUSB activity in the lung, liver, kidney and LVB that received PBS (top panels) or huMSCs (middle panel). Cancellous bone mass in the vertebral body was—more than 40% higher in the group treated with MSC+LLP2A-Ale (cancellous bone volume, BV/TV 13.9±2.2%) compared to PBS (BV/TV 9.4±1.7%), MSC (BV/TV 10.2±1.9%) or MSC+LLP2A (BV/TV 10.5±0.5%) controls three weeks after a single injection of huMSC and LLP2A-Ale.\nIn FIG. 8, Three-month-old MSPVII mice received a single intravenous injection of either of PBS, huMSC (5×10^5) or huMSC+LLP2A or LLP2A-Ale. The mice were sacrificed 24 hours later. Following sacrifice, small portions of organ including lumbar vertebral bodies (LVB) were harvested and frozen in Optimal Cutting Temperature embedding media. The sections were stained using naphthol-AS-BI-β-Dglucuronide (GUSB) as a substrate. Representative sections from lung, liver, kidney and lumbar vertebral (LVB) trabecular bone regions were presented. […] Isolated GUSB-positive cells were also observed within bone marrow of the LVB in […] group.\nThe NOD-SCID MPSVII strain was the result of extensive backcrossing of the mutant GUSB allele from the B6.C-H-2^bm1/ByBirgus^mps/+ mouse onto the NOD/LtSz-scid background. Animals were bred and maintained at the Stem Cell Department of the UC Davis Medical Center under approved animal care protocols. Affected animals were generated by breeding mice heterozygous for the MPSVII mutation. Homozygous GUSB-deficient pups were identified at birth by biochemical analysis of toe tissue.\nSerum levels of the amino terminal propeptide of type 1 procollagen (P1NP), osteocalcin and C-terminal telopeptides of type I collagen (CTX-I) were measured using mouse sandwich ELISA kits from Biomedical Technologies (Stroughton, Mass.) or Immunodiagnostic System (Fountain Hills, Ariz.). The manufacturer's protocols were followed and all samples were assayed in duplicate. A standard curve was generated from each kit and the absolute concentrations were extrapolated from the standard curve. The coefficients of variations (CVs) for inter-assay and intra-assay measurements were less than 10% for all assays and are similar to the manufacturer's references (Yao, W., et al., Arthritis Rheum, 2008, 58(6): p. 1674-86; Yao, W., et al., Arthritis Rheum, 2008, 58(11): p. 3485-3497).\nAfter fixation in 4% paraformaldehyde, the right distal femurs, mid-femurs and the 5th lumbar vertebral bodies were dehydrated in graded concentrations of ethanol and xylene and embedded un-decalcified in methyl methacrylate. The frontal sections (8 μm thick) were cut using a vertical bed microtome (Leica/Jung 2265) and affixed to slides coated with a 2% gelatin solution. Unstained 8-μm-thick sections were used for assessing fluorochrome labeling and dynamic changes in bone. […]"}, "MSC": {"tested_on": "MSC", "test": "MSC osteoblast maturation, function, migration and lineage potentials", "format": "cell-based"}, "C57BL/6 mice": {"tested_on": "C57BL/6 mice", "test": "Age-related trabecular bone loss after peak bone acquisition", "format": "in vivo, mouse", "excerpt": "FIGS. 18A and B show LLP2A-Ale increases bone formation parameters at the trabecular DF (P<0.05) in C57BL/6 mice."}, "[1]": {"tested_on": "10-week-old ovariectomized (OVX) mice", "test": "Ovariectomized (OVX) mouse model", "format": "in vivo", "excerpt": "FIG. 21 depicts histomorphometric analyses of the 5th lumbar vertebral bodies after LLP2A-Ale treatment of 10-week-old ovariectomized (OVX) mice, showing increases in osteoblast numbers, activities and bone formation rate/bone surface (BFR/BS) post-treatment. Analyses included trabecular bone area (%), osteoblast surface (Ob/BS), mineralizing surface (MS/BS) activities and BFR/BS (P<0.05).\nRepresentative fluorescent images from the trabecular bone at the 5th LVB (Top panel: white arrowheads illustrate osteoblasts; Bottom panel: yellow arrows illustrate double labeled trabecular bone surfaces).\nFIG. 23 depicts histomorphometry analyses of the right mid-femurs included bone formation at the endosteal (Ec) or periosteal (Ps.) bone surfaces, and cortical bone thickness of 10-week-old ovariectomized (OVX) mice. […] Three-point bending was performed on left femurs to obtain maximum stress of the femurs.\nShort yellow arrows illustrated double labeled endocortical bone surfaces. (a, p<0.05 versus Sham; b, P<0.05 vs. OVX+PBS, c, P<0.05 vs. OVX+LLP2A; d, P<0.05 vs. OVX+Ale. Data are represented as Mean±SD)."}, "[2]": {"conditions": "5th lumbar vertebral body, three weeks, co-injected with huMSC"}, "[3]": {"conditions": "serum, three weeks, co-injected with huMSC"}, "[4]": {"conditions": "three weeks following huMSCs transplantation"}}, "note": "Entries after “also recorded” stand apart in the source; their conditions may differ.", "data": [{"smiles": "Cc1ccccc1NC(=O)Nc1ccc(CC(=O)N[C@@H](CCCCNC(=O)/C=C/c2cccnc2)C(=O)N[C@@H](CCCC(=O)O)C(=O)NC2(C(=O)NCCOCCOCCNC(=O)CCC(=O)NCCOCCOCCNC(=O)CCC(=O)N[C@@H](CCCCNC(=O)[C@H](N)CSC3CC(=O)N(CC4CCC(C(=O)NCCCC(O)(P(=O)(O)O)P(=O)(O)O)CC4)C3=O)C(N)=O)CCCCC2)cc1", "note": "(some centres unmarked) [LLP2A-Ale, LLP2A-Alendronate]", "values": [{"measurement": "osteoblasts and osteocytes at cortical and trabecular bone regions in LVB", "setting": "NOD/SCID/MPSVII mice; 3 weeks following co-injection with GFP-labeled huMSCs", "value": "increased"}, {"measurement": "mineral apposition rate", "setting": "NOD/SCID/MPSVII mice; [2]", "value": "significant increases"}, {"measurement": "osteoblast surface", "setting": "NOD/SCID/MPSVII mice; [2]", "value": "significant increases"}, {"measurement": "surface-based bone formation rate (BFR/BS)", "setting": "NOD/SCID/MPSVII mice; [2]", "value": "significant increases"}, {"measurement": "huMSCs (GUSB+) on/adjacent to bone surface", "setting": "NOD/SCID/MPSVII mice; 24 hours after single i.v. injection of huMSCs with compound", "value": "greatly increased; also recorded: Significant amount; also recorded: seen accumulated in bone marrow, adjacent to both trabecular and periosteal bone surfaces"}, {"measurement": "intra-cortical bone remodeling", "setting": "NOD/SCID/MPSVII mice; mid-femur, three weeks, co-injected with huMSC", "value": "markedly increased"}, {"measurement": "osteocalcin", "setting": "NOD/SCID/MPSVII mice; [3]", "value": "significant increases"}, {"measurement": "procollagen 1 N-terminal propeptide (P1NP)", "setting": "NOD/SCID/MPSVII mice; [3]", "value": "significant increases"}, {"measurement": "cancellous bone mass in the vertebral body, higher compared to controls", "setting": "NOD/SCID/MPSVII mice; three weeks after single injection of huMSC and compound, vs PBS, MSC, MSC+LLP2A", "value": "more than 40%"}, {"measurement": "huMSCs (GUSB+) adjacent to/retained in bone", "setting": "NOD/SCID/MPSVII mice; three weeks after transplantation, co-injected with huMSCs", "value": "only seen adjacent to the bone surface; also recorded: retention of the transplanted huMSCs in bone"}, {"measurement": "cortical bone formation", "setting": "NOD/SCID/MPSVII mice; [4]", "value": "increases"}, {"measurement": "trabecular bone formation", "setting": "NOD/SCID/MPSVII mice; [4]", "value": "increases"}, {"measurement": "bone formation rates at endocortical and periosteal surfaces of the mid-femur, increase", "setting": "NOD/SCID/MPSVII mice; three weeks, co-injected with huMSC", "value": "50-100%"}, {"measurement": "cancellous bone volume, BV/TV", "setting": "NOD/SCID/MPSVII mice; vertebral body, three weeks after single injection of huMSC with or without compound", "value": "13.9±2.2", "unit": "%"}, {"measurement": "MSC chondrogenic or adipogenic potentials", "setting": "MSC", "value": "without affecting"}, {"measurement": "MSC osteoblast maturation, function and migration", "setting": "MSC", "value": "increases"}, {"measurement": "bone formation parameters at the trabecular DF", "setting": "C57BL/6 mice; P<0.05", "value": "increases"}, {"measurement": "age-related trabecular bone (loss) after peak bone acquisition", "setting": "C57BL/6 mice; mouse, in vivo", "value": "prevents"}, {"measurement": "bone formation parameters at trabecular bone surfaces in the lumbar vertebral bodies (LVB)", "setting": "C57BL/6 mice; mouse, in vivo", "value": "increases"}, {"measurement": "osteoblast numbers, activities and bone formation rate/bone surface (BFR/BS)", "setting": "[1]; 5th lumbar vertebral bodies", "value": "increases"}, {"measurement": "maximum stress", "setting": "[1]; femur three-point bending, single IV injection of conjugate or four weeks of PTH", "value": "not significantly altered"}, {"measurement": "endocortical bone formation", "setting": "[1]; mid-femur, vs OVX", "value": "increases"}, {"measurement": "cortical bone thickness", "setting": "[1]; mid-femur, single IV injection of conjugate or four weeks of PTH", "value": "not significantly altered"}]}]}
